# Laboratory results reported in US7365083B2, “Amide derivatives as NMDA receptor antagonists” (Richter Gedeon Vegyeszeti Gyar Rt., priority 2000, dated 2008).
# Read-outs that look alike come from different tables or passages of the source.
# Assays:
# Format in all cases: cell-based
# [1] = target: T1, NR1a/NR2A receptors (Rattus norvegicus, UniProt Q00959); experiment: NMDA antagonist potency on HEK cells transiently transfected with NR1a/NR2A subunits, patch clamp method; settings: HEK293, 15 μM test concentration, 100 μM NMDA, -70 mV, read-out: NR1/NR2A % Inhibition of NMDA Ca2+-response 15 μM
# T1 construct: expressed in transfected cells; host or cells: HEK293, transient expression
# Experimental: (§1) Genes cloned according to published sequences [gi508809 (rat NR1a), gi205738 (rat NR2B), gi2905805 (rat NR2A)] were inserted into inducible mammalian expression vectors bearing different resistance genes (hygromycine in case of NR1a or neomycine in case of NR2 subunits). The vector constructs were introduced into HEK293 cells using a cationic lipid-mediated transfection method. Protein expression was induced by 3 μM MuristeronA. Cells were maintained in the presence of 365 μM ketamine for 48-72 hours under an atmosphere of 95% air-5% CO2 at 37° C. before the experiments.
# Assessment of NMDA Antagonist Potency on Cells Transfected with NR1a/NR2A Subunits—Patch Clamp Method
# Cells transiently expressing NR1a/NR2A receptors and grown onto coverslips were used in patch clamp experiments. Whole-cell patch clamp recording was done according to the standard technique. Cell cultures were constantly superfused with an extracellular solution (140 mM NaCl, 5 mM KCl, 5 mM Hepes, 5 mM Na-Hepes, 2 mM CaCl2, 20 mM glucose, 10 μM glycine, pH 7.35) at room temperature. Patch pipettes with resistance between 3 and 6 MΩ were filled with an intracellular solution (140 mM CsCl, 11 mM EGTA, and 10 mM Hepes, pH 7.3). The inward current elicited by 100 μM NMDA was recorded from cells voltage clamped at −70 mV. Compounds were applied via a multibarrel ejection device controlled by electromagnetic valves. First NMDA was repeatedly administered until stabilization of responses, then it was given in the presence of the test compound. The degree of inhibition—expressed as percentage—was calculated from the peak currents evoked by NMDA in the presence and absence of the test compound. Selectivity ratio (NR2B/NR2A), was calculated as the ratio of test dose on NR1/2A transfected cells and IC50 value of NMDA antagonism on NR1/NR2B expressing cells.
# [2] = target: T2, NMDA receptors (Rattus norvegicus, UniProt P35439+Q00960); experiment: NMDA antagonist potency in vitro by measurement of intracellular calcium concentration with a plate reader fluorimeter, primary neocortical cell cultures
# T2 construct: primary neocortical cell cultures derived from 17 day old Charles River rat embryos; endogenous in cells; host or cells: primary neocortical neurons from 17 day old rat embryos, 4-7 days in vitro
# From the text: It is known that during postnatal development the subunit composition of neuronal NMDA receptors is changing. […] Since NMDA receptors are known to be permeable to calcium ions upon excitation, we characterized the NMDA receptor activation by measurement of rise in intracellular calcium concentration following the agonist (NMDA) application to the cells.
# Assessment of NMDA Antagonist Potency In Vitro by Measurement of Intracellular Calcium Concentration with a Plate Reader Fluorimeter
# The cultures were used for the intracellular calcium measurements after 4-7 days in vitro. […] To stop the loading the cells were washed twice with the solution used for the measurement (140 mM NaCl, 5 mM KCl, 2 mM CaCl2, 5 mM HEPES, 5 mM HEPES-Na, 20 mM glucose, 10 μM glycine, pH=7.4). After washing the test compounds were added to the cells in the above solution (90 μl/well). Intracellular calcium measurements were carried out with a plate reader fluorimeter: elevation of Fluo-4-fluorescence and so, intracellular calcium was induced by application of 40 μM NMDA. Inhibitory potency of the test compounds was assessed by measuring the reduction in the calcium elevation in the presence of different concentrations of the compounds. After the measurement a standard calibration procedure with slight modifications was used to convert the fluorescent data to calcium concentration values [Meth. Cell.
# Dose-response curves and IC50-values were calculated by using data derived from at least three independent experiments. Inhibitory potency of a compound at a single concentration point was expressed as percent inhibition of the NMDA response. Sigmoidal concentration-inhibition curves were fit to the data and IC50 values were determined as the concentration that produces half of the maximal inhibition caused by the compound.
# [3] = target: T3, NR1a/NR2B receptors (Rattus norvegicus, UniProt P35439+Q00960); experiment: NMDA antagonist potency on HEK293 cells stably expressing NR1a/NR2B subunits, fluorimetric method; settings: for IC50: HEK293 cells stably expressing NR1a/NR2B, intracellular calcium, plate reader fluorimeter, means of 3 experiments, read-out: NR1/NR2B IC50
# T3 construct: expressed in transfected cells
# Experimental: as §1
# Assessment of NMDA Antagonist Potency on Cells Transfected with NR1a/NR2B Subunits—Fluorimetric Method
# For establishment of cell clones stably expressing NR1a/NR2B receptors, transfected cells were exposed to the selecting antibiotics for 4 weeks then resistant clones were grown up. The expression of NR2B subunit protein was verified by a flow cytometry based immunocytochemical method. Positive clones were further tested for functional activity in patch clamp experiments. […] Induction of protein expression and maintenance of cells were the same as described above.
# The cells were plated onto standard 96-well microplates. A plate reader-based fluorometric assay was used to measure NMDA antagonism. The method was essentially similar to that described above for testing primary cultures of rat cortical neurons.
# [4] = rat primary neocortical cultures, 4-7 days in vitro, calcium elevation induced by 40 μM NMDA, Fluo-4, read-out: NMDA IC50
# T1 sequence (Q00959 20-1464 limits assumed): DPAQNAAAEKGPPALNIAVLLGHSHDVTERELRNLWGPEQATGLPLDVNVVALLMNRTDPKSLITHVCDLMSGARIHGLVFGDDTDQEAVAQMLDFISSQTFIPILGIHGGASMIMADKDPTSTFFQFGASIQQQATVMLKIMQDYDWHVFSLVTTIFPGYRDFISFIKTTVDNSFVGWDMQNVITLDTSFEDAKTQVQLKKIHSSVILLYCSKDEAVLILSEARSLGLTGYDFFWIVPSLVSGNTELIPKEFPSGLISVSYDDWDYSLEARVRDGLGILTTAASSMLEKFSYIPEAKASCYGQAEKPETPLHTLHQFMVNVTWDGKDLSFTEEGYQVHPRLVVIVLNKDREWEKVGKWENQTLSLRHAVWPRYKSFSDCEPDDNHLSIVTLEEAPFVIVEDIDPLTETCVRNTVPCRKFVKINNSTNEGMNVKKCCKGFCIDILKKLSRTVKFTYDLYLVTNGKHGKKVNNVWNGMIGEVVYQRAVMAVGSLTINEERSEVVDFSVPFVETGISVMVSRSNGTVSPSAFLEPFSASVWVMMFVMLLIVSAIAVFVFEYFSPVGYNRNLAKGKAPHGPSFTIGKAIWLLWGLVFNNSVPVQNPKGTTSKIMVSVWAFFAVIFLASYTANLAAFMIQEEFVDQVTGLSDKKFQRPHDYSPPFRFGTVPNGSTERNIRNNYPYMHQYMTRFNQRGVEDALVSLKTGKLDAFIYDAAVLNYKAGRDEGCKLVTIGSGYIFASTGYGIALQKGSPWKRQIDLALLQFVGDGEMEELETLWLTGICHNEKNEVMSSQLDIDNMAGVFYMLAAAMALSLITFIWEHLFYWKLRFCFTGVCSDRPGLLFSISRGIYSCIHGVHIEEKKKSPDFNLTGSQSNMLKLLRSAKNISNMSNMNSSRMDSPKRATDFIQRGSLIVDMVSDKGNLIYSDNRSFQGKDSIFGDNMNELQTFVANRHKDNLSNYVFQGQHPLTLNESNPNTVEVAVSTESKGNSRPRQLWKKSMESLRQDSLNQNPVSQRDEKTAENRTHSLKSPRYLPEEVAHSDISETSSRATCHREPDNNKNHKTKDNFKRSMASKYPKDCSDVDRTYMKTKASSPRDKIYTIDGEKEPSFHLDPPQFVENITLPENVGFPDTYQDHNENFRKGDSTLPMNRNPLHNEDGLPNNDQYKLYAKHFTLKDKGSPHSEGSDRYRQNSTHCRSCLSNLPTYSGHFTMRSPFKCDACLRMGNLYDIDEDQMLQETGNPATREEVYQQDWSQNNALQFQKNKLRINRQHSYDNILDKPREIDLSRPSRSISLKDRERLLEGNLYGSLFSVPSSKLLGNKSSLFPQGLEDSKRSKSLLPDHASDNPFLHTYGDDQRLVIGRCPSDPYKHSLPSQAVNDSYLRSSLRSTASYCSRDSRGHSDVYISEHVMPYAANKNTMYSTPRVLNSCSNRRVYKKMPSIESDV
# T3 sequence (Q00960 27-1482, other chains not shown): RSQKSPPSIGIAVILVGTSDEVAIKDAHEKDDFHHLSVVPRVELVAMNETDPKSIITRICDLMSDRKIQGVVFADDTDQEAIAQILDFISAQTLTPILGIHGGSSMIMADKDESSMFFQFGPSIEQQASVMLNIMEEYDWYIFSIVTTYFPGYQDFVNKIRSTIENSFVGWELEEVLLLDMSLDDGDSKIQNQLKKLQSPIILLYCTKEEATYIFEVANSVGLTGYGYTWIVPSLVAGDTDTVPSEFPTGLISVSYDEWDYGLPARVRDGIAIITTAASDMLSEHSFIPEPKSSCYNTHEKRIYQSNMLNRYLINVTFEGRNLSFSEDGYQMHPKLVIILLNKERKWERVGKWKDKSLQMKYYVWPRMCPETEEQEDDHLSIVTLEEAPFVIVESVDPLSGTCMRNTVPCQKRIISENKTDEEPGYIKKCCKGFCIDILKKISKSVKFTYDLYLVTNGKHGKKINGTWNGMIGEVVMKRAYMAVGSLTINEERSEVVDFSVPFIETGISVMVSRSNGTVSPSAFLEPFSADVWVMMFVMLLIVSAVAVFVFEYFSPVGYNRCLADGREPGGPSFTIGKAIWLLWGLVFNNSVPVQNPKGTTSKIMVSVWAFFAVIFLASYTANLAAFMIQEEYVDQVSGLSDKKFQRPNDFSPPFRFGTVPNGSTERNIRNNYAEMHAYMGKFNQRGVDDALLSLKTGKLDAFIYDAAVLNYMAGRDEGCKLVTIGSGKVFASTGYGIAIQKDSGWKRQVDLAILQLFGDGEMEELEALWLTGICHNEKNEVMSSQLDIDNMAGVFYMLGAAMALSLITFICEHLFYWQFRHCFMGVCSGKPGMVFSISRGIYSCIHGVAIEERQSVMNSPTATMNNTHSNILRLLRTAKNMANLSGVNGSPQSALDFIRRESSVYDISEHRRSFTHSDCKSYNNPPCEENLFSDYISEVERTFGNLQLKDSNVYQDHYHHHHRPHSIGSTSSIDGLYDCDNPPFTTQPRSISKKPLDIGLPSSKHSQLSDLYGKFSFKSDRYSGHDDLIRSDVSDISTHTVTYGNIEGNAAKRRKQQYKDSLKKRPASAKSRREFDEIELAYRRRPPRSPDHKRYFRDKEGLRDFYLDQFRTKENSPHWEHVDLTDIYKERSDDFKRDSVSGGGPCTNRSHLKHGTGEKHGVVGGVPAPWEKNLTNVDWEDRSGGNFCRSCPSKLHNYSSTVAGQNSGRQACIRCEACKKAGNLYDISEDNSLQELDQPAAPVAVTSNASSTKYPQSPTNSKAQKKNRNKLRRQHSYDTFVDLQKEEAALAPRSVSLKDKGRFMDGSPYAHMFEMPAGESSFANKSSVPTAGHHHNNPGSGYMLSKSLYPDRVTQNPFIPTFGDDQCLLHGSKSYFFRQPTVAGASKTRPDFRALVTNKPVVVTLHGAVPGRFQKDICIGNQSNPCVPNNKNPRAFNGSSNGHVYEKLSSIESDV
# T2 sequence (Q00960 27-1482, other chains not shown): as above
compound,measurement,setting,value
"C[C@@H]([C@@H](O)c1ccc(O)cc1)N1CCC(O)(c2ccccc2)CC1 [CP 101,606, (1S,2S)-1-(4-hydroxyphenyl)-2-(4-hydroxy-4-phenylpiperidine-1-yl)-1-propanol, reference compound]",inhibition at 15 µM,[1],-8.8%
"Oc1ccc(OCCN2CCC(Cc3ccc(F)cc3)CC2)cc1 [Co-111103, 1-[2-(4-hydroxyphenoxy)ethyl]-4-(4-fluorobenzyl)piperidine, reference compound]",IC50,[2]; [4],60 nM
"O=C(c1cc2ccc(O)cc2[nH]1)N1CCC(Cc2ccc(F)cc2)CC1 [Compound 4513848, 1-[4-(4-Fluorobenzyl)piperidine-1-yl]-1-(6-hydroxy-1H-indole-2-yl)methanone]",IC50,[2]; [4],90 nM
"O=C(c1cc2ccc3[nH]ccc3c2[nH]1)N1CCC(Cc2ccccc2)CC1 [Compound 4514305, 1-(4-Benzylpiperidin-1-yl)-1-(1,6-dihydro-1,6-diaza-as-indacene-2-yl)methanone]",IC50,[2]; [4],392 nM
"Cc1ccc(CC2CCN(C(=O)c3nc4ccc(O)cc4[nH]3)CC2)cc1 [Compound 4570001378, (6-Hydroxy-1H-benzoimidazol-2-yl)-[4-(4-methyl-benzyl)-piperidine-1-yl]-methanone]",IC50,[2]; [4],9 nM
"O=C(c1cc2cc3[nH]c(=O)oc3cc2[nH]1)N1CCC(Cc2ccccc2)CC1 [Compound 4570001461, 6-(4-Benzylpiperidin-1-carbonyl)-1,5-dihydro-oxazolo[4,5-f]indole-2-one]",IC50,[3],15 nM
same,inhibition at 15 µM,[1],14.9%
"O=C(c1cc2cc3[nH]c(=O)oc3cc2[nH]1)N1CCC(OCc2ccccc2)CC1 [Compound 4570001462, 6-(4-Benzyloxypiperidin-1-carbonyl)-1,5-dihydro-oxazolo[4,5-f]indole-2-one]",IC50,[2]; [4],79 nM
"O=C(c1cc2cc3[nH]c(=O)oc3cc2[nH]1)N1CCC(Cc2ccc(F)cc2)CC1 [Compound 4570001484, 6-[4-(4-Fluorobenzyl)piperidin-1-carbonyl]-1,5-dihydro-oxazolo[4,5-f]indole-2-one]",IC50,[2]; [4],41 nM
"O=C(c1cc2c(ccc3cn[nH]c32)[nH]1)N1CCC(Cc2ccc(F)cc2)CC1 [Compound 4570001661, [4-(4-Fluorobenzyl)piperidin-1-yl]-(1,6-dihydro-pirrolo[2,3-g]indazol-7-yl)-methanone]",IC50,[2]; [4],150 nM
"O=C(c1cc2c(ccc3cn[nH]c32)[nH]1)N1CCC(Cc2ccccc2)CC1 [Compound 4570001662, (4-Benzylpiperidin-1-yl)-(1,6-dihydro-pirrolo[2,3-g]indazol-7-yl)-methanone]",IC50,[2]; [4],58 nM
"O=C(c1cc2c(ccc3[nH]cnc32)[nH]1)N1CCC(Cc2ccc(F)cc2)CC1 [Compound 4570001688, [4-(4-Fluorobenzyl)piperidin-1-yl]-(3,6-dihydro-imidazo[4,5-e]indol-7-yl)methanone]",IC50,[2]; [4],88 nM
"O=C(c1cc2c(ccc3[nH]ncc32)[nH]1)N1CCC(Cc2ccccc2)CC1 [Compound 4570001689, (4-Benzylpiperidin-1-yl)-(3,6-dihydro-pirrolo[3,2-e]indazol-7-yl)methanone]",IC50,[2]; [4],20 nM
"O=C(c1cc2c(ccc3[nH]ncc32)[nH]1)N1CCC(Cc2ccc(F)cc2)CC1 [Compound 4570001690, [4-(4-Fluorobenzyl)piperidin-1-yl]-(3,6-dihydro-pirrolo[3,2-e]indazol-7-yl)methanone]",IC50,[2]; [4],22 nM
"O=C(c1cc2c(ccc3[nH]cnc32)[nH]1)N1CCC(Cc2ccccc2)CC1 [Compound 4570001779, (4-Benzylpiperidin-1-yl)-(3,6-dihydro-imidazo[4,5-e]indol-7-yl)methanone]",IC50,[2]; [4],50 nM
"O=C(c1nc2c(ccc3oc(=O)[nH]c32)[nH]1)N1CCC(Cc2ccccc2)CC1 [Compound 4570001971, 7-(4-Benzylpiperidin-1-carbonyl)-1,6-dihydro-3-oxa-1,6,8-triaza-as-indacen-2-one]",IC50,[2]; [4],328 nM
"O=C(c1nc2cc3[nH]c(=O)oc3cc2[nH]1)N1CCC(Cc2ccccc2)CC1 [Compound 4570001972, 6-(4-Benzylpiperidin-1-carbonyl)-3,5-dihydro-imidazo[4′,5′;4,5]benzo[1,2-d]oxazole-2-one]",IC50,[2]; [4],193 nM
"O=C(c1cc2cc3[nH]c(=O)[nH]c3cc2[nH]1)N1CCC(Cc2ccccc2)CC1 [Compound 4570002045, 6-(4-Benzylpiperidin-1-carbonyl)-3,5-dihydro-1H-imidazo[4,5-f]indole-2-one]",IC50,[2]; [4],440 nM
"Cc1ccc(OC2CCN(C(=O)c3cc4c(ccc5[nH]ncc54)[nH]3)CC2)cc1 [Compound 4570002260, (3,6-Dihydro-pirrolo[3,2-e]indazol-7-yl)-(4-p-tolyloxypiperidin-1-yl)methanone]",IC50,[3],30 nM
same,selectivity toward NR2B subunit containing NMDA receptors (in words),[3]; according to the results in Table 2,highly selective
same,Selectivity (selectivity ratio NR2B/NR2A),[3]; ratio of test concentration on NR1/NR2A transfected cells and IC50 value on NR1/NR2B expressing cells,>500
same,inhibition at 15 µM,[1],3.3%
same,IC50,[2]; [4],42 nM
"Cc1ccc(CC2CCN(C(=O)c3cc4c(ccc5[nH]ncc54)[nH]3)CC2)cc1 [Compound 4570002340, (3,6-Dihydro-pirrolo[3,2-e]indazol-7-yl)-[4-(4-methylbenzyl)piperidin-1-yl]methanone]",IC50,[2]; [4],127 nM
"O=C(CCN1CCC(Cc2ccc(F)cc2)CC1)c1ccc2[nH]c(=O)oc2c1 [EMD 95885, reference compound]",IC50,[2]; [4],35 nM
"C[C@@H](CN1CCC(Cc2ccccc2)CC1)[C@@H](O)c1ccc(O)cc1 [Ro 25.6981, R-(R*,S*)-1-(4-hydroxyphenyl)-2-methyl-3-[4-(phenylmethyl)piperidin-1-yl]-1-propanol, reference compound]",IC50,[2],159 nM
